According to PMC6719172, “Inhibition of CpLIP2 Lipase Hydrolytic Activity by Four Flavonols (Galangin, Kaempferol, Quercetin, Myricetin) Compared to Orlistat and Their Binding Mechanisms Studied by Quenching of Fluorescence” (Molecules, 2019):
Values after ≈ are worked out from the molar mass of the structure shown. Where two headings read alike, the source gives them in different places.

Assays:
CpLIP2 lipase = CpLIP2 lipase (Candida parapsilosis, UniProt Q8NIN8); experiment: Inhibition of CpLIP2 hydrolytic activity (ethyl oleate hydrolysis, GC); assay type: biochemical; conditions: for Ki: non-competitive or uncompetitive model
Sequence of CpLIP2 lipase (Q8NIN8 entry or part of it): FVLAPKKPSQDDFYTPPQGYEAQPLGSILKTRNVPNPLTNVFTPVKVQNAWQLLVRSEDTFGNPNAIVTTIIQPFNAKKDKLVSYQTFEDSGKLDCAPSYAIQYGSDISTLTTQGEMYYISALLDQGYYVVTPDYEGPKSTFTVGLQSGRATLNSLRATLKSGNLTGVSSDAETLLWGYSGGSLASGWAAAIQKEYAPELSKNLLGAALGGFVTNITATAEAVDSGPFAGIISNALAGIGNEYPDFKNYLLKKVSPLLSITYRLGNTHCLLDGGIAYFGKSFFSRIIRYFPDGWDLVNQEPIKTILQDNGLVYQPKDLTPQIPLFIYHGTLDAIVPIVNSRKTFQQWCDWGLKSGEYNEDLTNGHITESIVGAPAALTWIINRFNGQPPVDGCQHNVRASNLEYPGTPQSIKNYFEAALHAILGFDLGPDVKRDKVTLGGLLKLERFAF
Method: The effect of inhibitor concentrations on the hydrolysis reaction rate in standard conditions was assumed to follow either a non-competitive or an uncompetitive model, corresponding to Equation (1):(1) Ki=I/ V0/Vi−1 where V0 and Vi are the initial rates of the reaction without or with inhibitor at concentration I.
Standard CpLIP2 hydrolytic activity measurement. Hydrolysis activities were determined by measuring the initial rates of fatty acid and esters production (µmol·min^−1·mL^−1), using ethyl oleate (C18:1, EE) as substrates. Specific activity is the total activity expressed in µmol·min^−1·mL^−1 in relation to protein concentration (mg·mL^−1). Experiments were conducted as described by. Hydrolysis of ethyl oleate (EO) was performed in aqueous emulsions at 30 °C. This emulsion consisted of 100 µmol·mL^−1 EO emulsified by sonication (Branson Sonifier 250, 20 s, 200 watts, 145 µm amplitude) in an aqueous solution of 20 g·L^−1 poly vinyl alcohol. The reactions of hydrolysis were prepared in glass test tube by adding 100 μL of ethyl oleate emulsion to 800 µL of sodium phosphate buffer 50 mM, pH 6.5; then the solutions were incubated in water bath at 30 °C for 5 min. The reaction was started by the addition of 100 µL of enzyme solution of CpLIP2 with final concentration 3 µg·mL^−1 with activity 2000 U/mL.
The enzyme solution was pre-incubated at 25 °C, with continuous stirring at 350 rpm. Pre-incubation was conducted with 1980 µL CpLIP2 lipase diluted in sodium NaH2PO4/Na2HPO4 phosphate buffer (50 mM, pH 6.5) containing 20 µL absolute EtOH at 2 different times (1 and 30 min). This pre-incubation phase was conducted in closed vials placed during 2 h on a Radleys StarFish Multi-Experiment Workstation. The reaction was conducted for 15 min at 30 °C, and then stopped by adding 950 µL of a mixture of ethanol/sulphuric acid (100:0.8, v/v). After the addition of 50 µL of internal standards (ethanolic solution of pentadecanoic acid and its ethyl and methyl esters, 1 µmol each), lipids were extracted from the mixture with 1 mL of hexane. Samples were then prepared for analyzing esters and free fatty acids by gas chromatography (GC) as follows. Hexane extract (200 µL) was reacted with 25 µL pyridine and 25 µL N-methyl-tri (methylsilyl)-trifluoroacetamide (MSTFA) as silylating agent. Mixtures were incubated in water bath at 50 °C for 20 min, and then samples were ready for analysis. Reaction rates were determined by the analysis of fat composition by capillary gas chromatography after 15 min reaction. It was checked that less than 30% of the total substrate was converted at the end of the 15 min reaction.
A Shimadzu GC 2010 plus gas chromatograph equipped with a flame ionization detector, an automatic sampler (injected volume 0.1 μL) and a split/splitless injector was used for analysis. The capillary column was a DB-5ht (15 m × 0.25 mm, Phenomenex, Le Pecq, France). The helium carrier flow was 1 mL min^−1and the split ratio was 1:50. Temperature conditions were, for reactions with individual substrates: injector 280 °C, detector 290 °C, oven 200–225 °C at 10 °C min^−1 then to 260 °C at 35 °C·min^−1 for ethyl ester (EE) and fatty acid (FA) of C18:1. Calibration curves were realized using emulsions of mixtures of FA and monoesters prepared according to the same protocol, without enzyme and alcohol.
In order to measure the residual lipase activity in the presence of potential inhibitors, the previous method was conducted in the presence and absence of the inhibitors. For each potential inhibitor, the lipase-catalyzed rate of hydrolysis was evaluated after a pre-incubation period between the lipase and the potential inhibitors, which were solubilized in absolute ethanol at 1% of final concentration. The preincubation was performed at 25 °C with continuous stirring at 350 rpm with different concentration of inhibitors (14, 27.5, 55 µM) which represented, respectively 25, 50, 100-fold the final lipase concentration (0.55 µM). […]

pancreatic lipase (PL) = target: pancreatic lipase (PL); set-up: method as in PMID 23363068; conditions: in vitro assay; cited from earlier work
[1] = set-up: method as in PMID 24601218, doi:10.1021/ja00090a032; conditions: cited from earlier work
[2] = target: C. rugosa commercial lipase; set-up: method as in doi:10.1016/j.molcatb.2006.02.012; conditions: cited from earlier work
[3] = estimated after 30 min of pre-incubation
[4] = read-out: inhibition of CpLIP2 activity
[5] = concentration not stated (14–55 µM tested), up to 30 min pre-incubation

Structure (SMILES) | inhibitory effect relative to THL (times lower) (CpLIP2 lipase) | Ki (CpLIP2 lipase; [3]) | inhibition at 14 µM (CpLIP2 lipase; [4]) | inhibition at 27.5 µM (CpLIP2 lipase; [4]) | inhibition at 55 µM (CpLIP2 lipase; [4]) | IC50 (pancreatic lipase (PL)) | inhibition of CpLIP2 activity (CpLIP2 lipase; after 1 min pre-incubation, concentration not given) | inhibition of CpLIP2 activity (CpLIP2 lipase; [5]) | pKa1 [1] | IC50 [2] | inhibition of CpLIP2 activity (CpLIP2 lipase; 55 µM (100-fold molar excess, highest concentration), pre-incubation time not stated, 55 µM) | Ki (CpLIP2 lipase; estimated after 1 min of pre-incubation) | inhibition at 27.5 µM (CpLIP2 lipase; read-out: inhibition of CpLIP2 activity, 27.5 µM (50-fold lipase concentration), pre-incubation time not stated) | inhibition at 55 µM (CpLIP2 lipase; read-out: inhibition of CpLIP2 activity, 55 µM (100-fold molar excess, highest concentration), pre-incubation time not stated) | inhibition at 14 µM (CpLIP2 lipase; read-out: inhibition of CpLIP2 catalytic activity, 14 µM, within 1 min of pre-incubation)
O=c1c(O)c(-c2ccc(O)c(O)c2)oc2cc(O)cc(O)c12 [QUE, quercetin] | about 100 times | 80 µM | 37% | 39% | 35% | – | – | – | – | – | – | – | – | – | –
O=c1c(O)c(-c2ccccc2)oc2cc(O)cc(O)c12 [GAL, galangin] | – | > 150 µM | – | – | – | 48.2 mg/mL (≈ 178 mM) | no inhibition | ≤ 20% | – | – | – | – | – | – | –
O=c1c(O)c(-c2cc(O)c(O)c(O)c2)oc2cc(O)cc(O)c12 [MYR, myricetin] | about 100 times | 60 µM | – | – | – | – | – | about 20% | 6.6 | – | – | – | – | – | –
O=c1c(O)c(-c2ccc(O)cc2)oc2cc(O)cc(O)c12 [KAE, kaempferol] | – | 6 µM | – | – | – | – | – | – | 8.2 | 6300 µM | 90% | 4 µM | > 80% | 92% | 80%
